Legend:
[1] = molecular target: T1, USP7 (Homo sapiens, UniProt Q93009, C315A); experiment: Inhibition of USP7 by Fluorescence Intensity (FLINT) readings, Ubiquitin-Rhodamine-110 substrate; assay type: biochemical; conditions: 0.25 nM His-His-USP7 (aa208-560), 60 minutes at 30° C. preincubation; Ki determined from IC50 according to Cer et al.
T1 construct: 0.25 nM His-His-USP7 (aa208-560, |C315A|) was incubated with compound; His-His (N)
Procedure, shortened: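 Kinetic rate of Rhodamine-110 release from ubiquitin substrate (50 nM or 4 μM), read every 3 min for 21 min, after 60 min, 30 °C preincubation of 0.25 nM USP7 catalytic domain C315A with compound. Bicine pH 8.0 buffer, 10% DMSO; 11-point IC50 vs DMSO and no-enzyme controls, converted to Ki.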

[2] = tested on: Z138 mantle cell lymphoma tumour cell lines; experiment: In vitro cytotoxicity, MTT assay; assay type: cell-based; conditions: Z138 cells, exposed to the test compounds for 96 hours
Procedure, shortened: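 MTT viability read-out: after 96 hours of compound treatment, Z138 mantle cell lymphoma cells received MTT for 4 hours, and formazan production was quantified by absorbance at 540 nm.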

T1 sequence (Q93009 208-560 C315A): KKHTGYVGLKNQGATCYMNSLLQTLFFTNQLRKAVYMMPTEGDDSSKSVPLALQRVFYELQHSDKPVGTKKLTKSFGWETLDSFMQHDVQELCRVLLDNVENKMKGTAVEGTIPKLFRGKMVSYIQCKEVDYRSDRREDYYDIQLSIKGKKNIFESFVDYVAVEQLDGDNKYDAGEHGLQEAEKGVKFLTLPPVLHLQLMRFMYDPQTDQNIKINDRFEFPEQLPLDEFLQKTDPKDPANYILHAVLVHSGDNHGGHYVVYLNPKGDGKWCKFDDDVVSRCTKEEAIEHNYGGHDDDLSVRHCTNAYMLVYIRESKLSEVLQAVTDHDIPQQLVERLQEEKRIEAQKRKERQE

Row | SMILES | Ki [1] | IC50 ([2]; Homo sapiens, Z-138) | IC50 [2]
1 | Cc1nc(Br)sc1C(=O)N1CC[C@@H](C(=O)N2CC[C@](O)(Cn3cnc(Oc4ccc(F)cc4)c(N)c3=O)C(F)(F)C2)[C@H](c2ccccc2)C1 [Example 41, 5-amino-3-(((4S)-1-[(3R,4R)-1-(2-bromo-4-methyl-1,3-thiazole-5-carbonyl)-3-phenylpiperidine-4-carbonyl]-3,3-difluoro-4-hydroxypiperidin-4-yl}methyl)-6-(4-fluorophenoxy)pyrimidin-4(3H)-one] | 6.7 nM | 2.5 nM | –
2 | Cc1ccc(-c2ccc(S(=O)(=O)N3CC[C@@H](C(=O)N4CCC(O)(Cn5cnc(Oc6ccc(F)cc6)c(N)c5=O)CC4)[C@H](c4ccccc4)C3)s2)cn1 [Example 117] | 28.6 nM | 27.6 nM | –
3 | Cc1ccc(C2(N3CC[C@@H](C(=O)N4CCC(O)(Cn5cnc(Oc6ccc(F)cc6)c(N)c5=O)CC4)[C@H](c4ccccc4)C3)COC2)cc1 [Example 155] | 97 nM | – | 588 nM
4 | COc1cc(Oc2ncn(C[C@@]3(O)CCN(C(=O)[C@@H]4CCN(Cc5nccc(C)n5)C[C@H]4c4ccccc4)CC3(F)F)c(=O)c2N)ccc1F [Example 216] | 25.7 nM | 19.1 nM | –
5 | Cc1nc(C2CCCCC2)sc1C(=O)N1CC[C@@H](C(=O)N2CCC(O)(Cn3cnc(Oc4ccc(F)cc4)c(N)c3=O)CC2)[C@H](c2ccccc2)C1 [Example 158] | 10.7 nM | 5.24 nM | –
6 | COc1cc(Oc2ncn(C[C@@]3(O)CCN(C(=O)[C@@H]4CCN(Cc5ncccn5)C[C@H]4c4ccccc4)CC3(F)F)c(=O)c2N)ccc1F [Example 215, 5-amino-3-[[(4S)-3,3-difluoro-4-hydroxy-1-[(3R,4R)-3-phenyl-1-(pyrimidin-2-ylmethyl)piperidine-4-carbonyl]-4-piperidyl]methyl]-6-(4-fluoro-3-methoxy-phenoxy)pyrimidin-4-one] | 54.1 nM | 24.6 nM | –
7 | Cc1nc(-c2ccc(F)cc2)sc1C(=O)N1CC[C@@H](C(=O)N2CC[C@](O)(Cn3cnc(Oc4ccc(F)cc4)c(N)c3=O)C(F)(F)C2)[C@H](c2ccccc2)C1 [Example 44] | 18.1 nM | 7.4 nM | –
8 | Nc1c(Oc2ccc(F)cc2)ncn(CC2(O)CCN(C(=O)[C@@H]3CCN(C(=O)Nc4nc5ccccc5s4)C[C@H]3c3ccccc3)CC2)c1=O [Example 87, (3R,4R)-4-[4-[[5-amino-4-(4-fluorophenoxy)-6-oxo-pyrimidin-1-yl]methyl]-4-hydroxy-piperidine-1-carbonyl]-N-(1,3-benzothiazol-2-yl)-3-phenyl-piperidine-1-carboxamide] | 88 nM | 45 nM | –
9 | COc1ccccc1C1(N2CC[C@@H](C(=O)N3CCC(O)(Cn4cnc(Oc5ccc(F)cc5)c(N)c4=O)CC3)[C@H](c3ccccc3)C2)COC1 [Example 139, 5-amino-6-(4-fluorophenoxy)-3-[[4-hydroxy-1-[(3R,4R)-1-[3-(2-methoxyphenyl)oxetan-3-yl]-3-phenyl-piperidine-4-carbonyl]-4-piperidyl]methyl]pyrimidin-4-one] | 19 nM | 24.6 nM | –
10 | Nc1c(Oc2ccc(F)cc2)ncn(CC2(O)CCN(C(=O)[C@@H]3CCN(C(=O)Nc4ccc(F)cc4)C[C@H]3c3ccccc3)CC2)c1=O [Example 84, (3R,4R)-4-[4-[[5-amino-4-(4-fluorophenoxy)-6-oxo-pyrimidin-1-yl]methyl]-4-hydroxy-piperidine-1-carbonyl]-N-(4-fluorophenyl)-3-phenyl-piperidine-1-carboxamide] | 21 nM | 18 nM | –
11 | Cc1ccc(-c2cccc(NC(=O)N3CC[C@@H](C(=O)N4CCC(O)(Cn5cnc(Oc6ccc(F)cc6)c(N)c5=O)CC4)[C@H](c4ccccc4)C3)c2)cn1 [Example 85, (3R,4R)-4-[4-[[5-amino-4-(4-fluorophenoxy)-6-oxo-pyrimidin-1-yl]methyl]-4-hydroxy-piperidine-1-carbonyl]-N-[3-(6-methyl-3-pyridyl)phenyl]-3-phenyl-piperidine-1-carboxamide] | 9.9 nM | 34 nM | –
12 | CCOc1cccc(C(=O)N2CC[C@@H](C(=O)N3CCC(O)(Cn4cnc(Oc5ccc(F)cc5)c(N)c4=O)CC3)[C@H](c3ccccc3)C2)c1 [Example 55, 5-amino-3-({1-[(3R,4R)-1-(3-ethoxybenzoyl)-3-phenylpiperidine-4-carbonyl]-4-hydroxypiperidin-4-yl)methyl)-6-(4-fluorophenoxy)pyrimidin-4(3H)-one] | 15 nM | 12 nM | –
13 | COc1cc(Oc2ncn(C[C@@]3(O)CCN(C(=O)[C@@H]4CCN(Cc5cnc(C)cn5)C[C@H]4c4ccccc4)CC3(F)F)c(=O)c2N)ccc1Cl [Example 183, 5-amino-6-(4-chloro-3-methoxy-phenoxy)-3-[[(4S)-3,3-difluoro-4-hydroxy-1-[(3R,4R)-1-[(5-methylpyrazin-2-yl)methyl]-3-phenyl-piperidine-4-carbonyl]-4-piperidyl]methyl]pyrimidin-4-one] | 37 nM | 9.5 nM | –
14 | Cc1ccc(-c2cc(F)c(C(=O)N3CC[C@@H](C(=O)N4CC[C@](O)(Cn5cnc(Oc6ccc(F)cc6)c(N)c5=O)C(F)(F)C4)[C@H](c4ccccc4)C3)s2)cn1 [Example 105, 5-amino-3-([(4S)-3,3-difluoro-1-((3R,4R)-1-[3-fluoro-5-(6-methylpyridin-3-yl)thiophene-2-carbonyl]-3-phenylpiperidine-4-carbonyl}-4-hydroxypiperidin-4-yl}methyl}-6-(4-fluorophenoxy)pyrimidin-4(3H)-one] | 2.6 nM | 5.08 nM | –
15 | Cc1ccc(-c2nccc(CN3CC[C@@H](C(=O)N4CC[C@](O)(Cn5cnc(Oc6ccc(F)cc6)c(N)c5=O)C(F)(F)C4)[C@H](c4ccccc4)C3)n2)cn1 [Example 176, 5-amino-3-[[(4S)-3,3-difluoro-4-hydroxy-1-((3R,4R)-1-{[2-(6-methyl-3-pyridyl)pyrimidin-4-yl]methyl]-3-phenyl-piperidine-4-carbonyl]-4-piperidyl]methyl]-6-(4-fluorophenoxy)pyrimidin-4-one] | 3.2 nM | 1.52 nM | –
16 | Nc1c(Oc2ccc(F)cc2)ncn(CC2(O)CCN(C(=O)[C@@H]3CCN(C(=O)c4cncc(F)c4)C[C@H]3c3ccccc3)CC2)c1=O [Example 134, 5-amino-6-(4-fluorophenoxy)-3-[[1-[(3R,4R)-1-(5-fluoropyridine-3-carbonyl)-3-phenyl-piperidine-4-carbonyl]-4-hydroxy-4-piperidyl]methyl]pyrimidin-4-one] | 3.7 nM | 17 nM | –
17 | Nc1c(Oc2ccc(F)cc2)ncn(CC2(O)CCN(C(=O)[C@@H]3CCN(C(=O)c4sc(Br)c5c4OCCO5)C[C@H]3c3ccccc3)CC2)c1=O [Example 67] | 14 nM | – | 27.8 nM
18 | Nc1c(Oc2ccc(F)cc2)ncn(CC2(O)CCN(C(=O)[C@@H]3CCN(C(=O)c4cscn4)C[C@H]3c3ccccc3)CC2)c1=O [Example 28, 5-amino-6-(4-fluorophenoxy)-3-[[4-hydroxy-1-[(3R,4R)-3-phenyl-1-thiazole-4-carbonyl)piperidine-4-carbonyl-4-piperidyl]methyl]pyrimidin-4-one] | 64.1 nM | 138 nM | –
19 | Cc1ccc(-c2nc(C)c(C(=O)N3CC[C@@H](C(=O)N4CCC(O)(Cn5cnc(Oc6cccnc6)c(N)c5=O)CC4)[C@H](c4ccccc4)C3)s2)cn1 [Example 169] | 3.47 nM | 16.6 nM | –
20 | Cc1nc(-c2ccc(C(F)(F)F)nc2)sc1C(=O)N1CC[C@@H](C(=O)N2CC[C@](O)(Cn3cnc(Oc4ccc(F)cc4)c(N)c3=O)C(F)(F)C2)[C@H](c2ccccc2)C1 [Example 103] | 6.4 nM | 6.63 nM | –
21 | Nc1c(Oc2ccc(F)cc2)ncn(C[C@@]2(O)CCN(C(=O)[C@@H]3CCN(C(=O)Nc4ccccc4)C[C@H]3c3ccccc3)CC2(F)F)c1=O [Example 77] | 37 nM | 13 nM | –
22 | Nc1c(Oc2ccc(F)cc2)ncn(CC2(O)CCN(C(=O)[C@@H]3CCN(C(=O)c4cncc(C(F)(F)F)c4)C[C@H]3c3ccccc3)CC2)c1=O [Example 122, 5-amino-6-(4-fluorophenoxy)-3-[(4-hydroxy-1-{(3R,4R)-3-phenyl-1-[5-(trifluoromethyl)pyridine-3-carbonyl]piperidine-4-carbonyl}piperidin-4-yl)methyl]pyrimidin-4(3H)-one] | 13.6 nM | 23 nM | –
23 | Nc1c(Oc2ccc(F)cc2)ncn(CC2(O)CCN(C(=O)[C@@H]3CCN(C(=O)c4sc(I)cc4F)C[C@H]3c3ccccc3)CC2)c1=O [Example 39, 5-amino-3-({1-[(3R,4R)-1-(3-fluoro-5-iodothiophene-2-carbonyl)-3-phenylpiperidine-4-carbonyl]-4-hydroxypiperidin-4-yl}methyl)-6-(4-fluorophenoxy)pyrimidin-4(3H)-one] | 8.2 nM | 13 nM | –
24 | Cc1ccc(-c2cc(F)c(C(=O)N3CC[C@@H](C(=O)N4CCC(O)(Cn5cnc(Oc6ccc(F)cc6)c(N)c5=O)CC4)[C@H](c4ccccc4)C3)s2)cn1 [Example 40] | 4.19 nM | 1.7 nM | –
25 | Nc1c(Oc2ccc(F)cc2)ncn(C[C@@]2(O)CCN(C(=O)[C@@H]3CCNC[C@H]3c3ccccc3)CC2(F)F)c1=O [Example 11, 5-amino-3-[[(4S)-3,3-difluoro-4-hydroxy-1-[(3R,4R)-3-phenylpiperidine-4-carbonyl]-4-piperidyl]methyl]-6-(4-fluorophenoxy)pyrimidin-4-one] | 99.4 nM | 390 nM | –
